Values of other authors as cited in patent US7968117B1, “Externally triggered microcapsules” (The United States of America as represented by the …, priority 1994, dated 2011).

Experiments:
[1] = preferred value within the printed range
[2] = dogs' brain, artificially heated region

Compound | HLB (preferred) [1] | heating temperature of the brain regions showing extravasation of Eb [2]
CCCCCCCCCCCCCCCCCC(=O)OCC(O)CO (centres unmarked) [Glycerol Monostearate (gms), Glycerol Monostearate] | (3.8 preferred) | –
Cc1cc(-c2ccc(/N=N/c3ccc4c(S(=O)(=O)[O-])cc(S(=O)(=O)[O-])c(N)c4c3O)c(C)c2)ccc1/N=N/c1ccc2c(S(=O)(=O)[O-])cc(S(=O)(=O)[O-])c(N)c2c1O.[Na+].[Na+].[Na+].[Na+] [free Eb, Evans blue dye] | – | greater than 44 °C
